Laboratory results: patent US10329324B2 (viDA Therapeutics Inc., priority 2013, dated 2019)
Where two headings read alike, the source gives them in different places.

What was measured:
human Granzyme B (hGzmB) = target: T1, human Granzyme B (hGzmB) (Homo sapiens, UniProt P10144); assay: Human Granzyme B enzymatic inhibition assay (fluorogenic, kinetic); assay type: biochemical; conditions: activity codes, Table 7; read-out: IC50 Activity Range
T1 construct: purchased Froelich Lab, Northshore University Health Systems Research Institute, Evanston, Ill., USA
T1 sequence (P10144 21-247): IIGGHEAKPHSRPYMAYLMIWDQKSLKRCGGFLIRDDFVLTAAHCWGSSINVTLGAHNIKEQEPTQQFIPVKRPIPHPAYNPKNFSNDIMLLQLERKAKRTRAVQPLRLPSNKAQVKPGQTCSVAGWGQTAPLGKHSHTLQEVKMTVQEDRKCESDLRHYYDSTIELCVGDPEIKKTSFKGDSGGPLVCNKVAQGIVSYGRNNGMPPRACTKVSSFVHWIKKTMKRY
Summary of the method: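 Human Granzyme B preincubated with compound for 30 min total (5 min shaking, 20 min bench, then reaction temperature). Fluorogenic substrate added and read kinetically, 25 cycles at 1-min intervals. Percent inhibition at one or two concentrations or 8–12-point 3-fold dose response from 20 uM, replicates, with IC50 by non-linear regression.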

[1] = Kinetic solubility determination in PBS; assay type: physicochemical; conditions: PBS 1X pH 7.4, 2.0% DMSO, 24 hour incubation at ambient temperature; for solubility at 24 h: phosphate buffered saline (PBS 1×), 21 °C, pH 7.4, aqueous buffer, kinetic from dmso stock
Protocol: Kinetic solubility buffer (phosphate buffered saline (PBS, 1×) at pH 7.4) was prepared from PBS (10×) solution, (Fisher Scientific, Pittsburgh, Pa., USA, 10×), by adding PBS (50 mL, 10×) to approximately water (450 mL HPLC grade). The volume of the solution was then adjusted to 500 mL for a total dilution factor of 1:10 and a final PBS concentration of 1×. The pH of the final solution (PBS (1×)) was measured and found to be 7.4.
A DMSO stock solution (typically 10 mM or greater) was used for each compound to be tested. A final DMSO concentration of 2.0% and maximum theoretical compound concentration of typically 200 μM (or greater) was achieved by diluting an aliquot (6 μl) of each stock with kinetic solubility buffer (294 μl, PBS (1×) at pH 7.4) using a liquid handling system (Hamilton STARlet, Hamilton Robotics, Inc., Reno, Nev., USA) and incubated directly in a solubility filter plate (Millipore, Billerica, Mass., USA). Following 24 hour incubation at ambient temperature (20.5-21.7° C.), each sample was vacuum filtered. The filtrate was injected into the chemiluminescent nitrogen detector for quantification (Automated Discovery Workstation, Analiza, Inc., Cleveland, Ohio, USA). Each result was reported both in μM and μg/mL units. Three separate on-board performance indicating standards were assayed in triplicate with each test compound to ensure test results were within the acceptable range.
The equimolar nitrogen response of the detector was calibrated using standards which spanned the dynamic range of the instrument from 0.08 to 4500 μg/ml nitrogen. Each filtrate was quantified with respect to this calibration curve. Each calculated solubility value was corrected for background nitrogen present in the DMSO, and buffer used to prepare each sample. All reported values for samples containing adjacent nitrogen atoms in a ring structure were corrected for the expected non-equimolar response. Each calculated solubility result assumed that each sample was free of nitrogen containing impurities and was stable under the assay conditions. Analyses were performed at Analiza Inc. (Cleveland, Ohio, USA) by published methods (Bhattachar, S. N., et al, J. Pharma. BioMed Anal. 41:152-7 2006).

[2] = read-out: Solubility in aqueous PBS Buffer (1X, pH 7.4)
[3] = read-out: Solubility in aqueous PBS Buffer (1X, pH 7.4), ug/mL

Compound	IC50 (human Granzyme B (hGzmB))	solubility at 24 h [1, 2]	solubility at 24 h [1, 3]	Solubility in aqueous PBS Buffer (1X, pH 7.4), uM [1]	Solubility in aqueous PBS Buffer (1X, pH 7.4), ug/mL [1]
CC[C@H](C)[C@H](NC(=O)CC(C)CC(=O)O)C(=O)NCC(=O)N1c2ccccc2C[C@H]1C(=O)NCc1nn[nH]n1 (single isomer, unassigned) [Example A17-1]	100 to 1000 nM	> 750 µM	> 407 µg/mL	–	–
CC[C@H](C)[C@H](NC(=O)CC(C)CC(=O)O)C(=O)NCC(=O)N1c2ccccc2C[C@H]1C(=O)NCc1nn[nH]n1 (single isomer, unassigned) [Example A17-2]	100 to 1000 nM	–	–	>750 uM	>407 ug/mL
CC[C@H](C)[C@H](NC(=O)C1CCCCC1C(=O)O)C(=O)NCC(=O)N1c2ccccc2C[C@H]1C(=O)NCc1nn[nH]n1 (single isomer, unassigned) [Example A20-1]	< 100 nM	535 µM	358 µg/mL	–	–
CC[C@H](C)[C@H](NC(=O)C1CCCCC1C(=O)O)C(=O)NCC(=O)N1c2ccccc2C[C@H]1C(=O)NCc1nn[nH]n1 (single isomer, unassigned) [Example A20-2]	< 100 nM	–	–	641 uM	429 ug/mL
CC[C@H](C)[C@H](NC(=O)C1CC=CCC1C(=O)O)C(=O)NCC(=O)N1c2ccccc2C[C@H]1C(=O)NCc1nn[nH]n1 (single isomer, unassigned) [Example A21-1]	< 100 nM	> 750 µM	> 425 µg/mL	–	–
CC[C@H](C)[C@H](NC(=O)C1CC=CCC1C(=O)O)C(=O)NCC(=O)N1c2ccccc2C[C@H]1C(=O)NCc1nn[nH]n1 (single isomer, unassigned) [Example A21-2]	< 100 nM	–	–	>750 uM	>425 ug/mL
CC[C@H](C)[C@H](NC(=O)C1CCCC1C(=O)O)C(=O)NCC(=O)N1c2ccccc2C[C@H]1C(=O)NCc1nn[nH]n1 (single isomer, unassigned) [Example A22-1]	< 100 nM	> 750 µM	> 416 µg/mL	–	–
CC[C@H](C)[C@H](NC(=O)C1CCCC1C(=O)O)C(=O)NCC(=O)N1c2ccccc2C[C@H]1C(=O)NCc1nn[nH]n1 (single isomer, unassigned) [Example A22-2]	< 100 nM	–	–	>750 uM	>416 ug/mL
CC[C@H](C)[C@H](NC(=O)C1CCCCC1C(=O)O)C(=O)NCC(=O)N1c2ccccc2C[C@H]1C(=O)NCc1nn[nH]n1 (single isomer, unassigned) [Example A23-1]	< 100 nM	–	–	>750 uM	>426 ug/mL
CC[C@H](C)[C@H](NC(=O)C1CCCCC1C(=O)O)C(=O)NCC(=O)N1c2ccccc2C[C@H]1C(=O)NCc1nn[nH]n1 (single isomer, unassigned) [Example A23-2]	< 100 nM	–	–	679 uM	386 ug/mL
CC[C@H](C)[C@H](NC(=O)C1CC1C(=O)O)C(=O)NCC(=O)N1c2ccccc2C[C@H]1C(=O)NCc1nn[nH]n1 (single isomer, unassigned) [Example A26-1]	< 100 nM	> 750 µM	> 395 µg/mL	–	–
CC[C@H](C)[C@H](NC(=O)C1CC1C(=O)O)C(=O)NCC(=O)N1c2ccccc2C[C@H]1C(=O)NCc1nn[nH]n1 (single isomer, unassigned) [Example A26-2]	< 100 nM	–	–	685 uM	361 ug/mL
CC[C@H](C)[C@H](NC(=O)C(C)CC(=O)O)C(=O)NCC(=O)N1c2ccccc2C[C@H]1C(=O)NCc1nn[nH]n1 (single isomer, unassigned) [Example A30-1]	< 100 nM	> 750 µM	> 396 µg/mL	–	–
CC[C@H](C)[C@H](NC(=O)C(C)CC(=O)O)C(=O)NCC(=O)N1c2ccccc2C[C@H]1C(=O)NCc1nn[nH]n1 (single isomer, unassigned) [Example A30-2]	< 100 nM	–	–	>750 uM	>396 ug/mL
CC[C@H](C)[C@H](NC(=O)C(CCC(=O)O)c1ccccc1)C(=O)NCC(=O)N1c2ccccc2C[C@H]1C(=O)NCc1nn[nH]n1 (single isomer, unassigned) [Example A54-1]	< 100 nM	451 µM	273 µg/mL	–	–
O=C(O)CCC(=O)NC1(C(=O)NCC(=O)N2c3ccccc3C[C@H]2C(=O)NCc2nn[nH]n2)CCCC1 [Example C29, 3-{[1-({2-Oxo-2-[(2S)-2-[(2H-1,2,3,4-Tetrazol-5-Ylmethyl)Carbamoyl]-2,3-Dihydro-1H-Indol-1-Yl]Ethyl}Carbamoyl)Cyclopentyl]Carbamoyl}Propanoic Acid]	> 10000 nM	–	–	–	–
CC[C@H](C)[C@H](NC(=O)Cc1ccccc1)C(=O)NCC(=O)N1c2c(cccc2NC(C)=O)C[C@H]1C(=O)NCc1nn[nH]n1 [Example C30, (2S)-7-Acetamido-1-{2-[(2S,3S)-3-Methyl-2-(2-Phenylacetamido)Pentanamido]Acetyl}-N-(2H-1,2,3,4-Tetrazol-5-Ylmethyl)-2,3-Dihydro-1H-Indole-2-Carboxamide]	> 10000 nM	–	–	–	–
CC[C@H](C)[C@H](NC(=O)Cc1ccccc1)C(=O)NCC(=O)N1c2ccc(NC(=O)OC(C)(C)C)cc2C[C@H]1C(=O)NCc1nn[nH]n1 [Example C31, Tert-Butyl N-[(2S)-1-{2-[(2S,3S)-3-Methyl-2-(2-Phenylacetamido)Pentanamido]Acetyl}-2-[(2H-1,2,3,4-Tetrazol-5-Ylmethyl)Carbamoyl]-2,3-Dihydro-1H-Indol-5-Yl]Carbamate]	100 to 1000 nM	–	–	–	–
CC[C@H](C)[C@H](NC(=O)Cc1ccccc1)C(=O)NCC(=O)N1c2ccc(NC(C)(C)C)cc2C[C@H]1C(=O)NCc1nn[nH]n1 [Example C33, (2S)-5-(Tert-Butylamino)-1-{2-[(2S,3S)-3-Methyl-2-(2-Phenylacetamido)Pentanamido]Acetyl}-N-(2H-1,2,3,4-Tetrazol-5-Ylmethyl)-2,3-Dihydro-1H-Indole-2-Carboxamide]	> 10000 nM	–	–	–	–
CC[C@H](C)[C@H](NC(=O)Cc1ccccc1)C(=O)NCC(=O)N1c2ccc([N+](C)(C)C)cc2C[C@H]1C(=O)NCc1nn[nH]n1 [Example C34, (2S)—N,N,N-Trimethyl-1-{2-[(2S,3S)-3-Methyl-2-(2-Phenylacetamido)Pentanamido]Acetyl}-2-[(2H-1,2,3,4-Tetrazol-5-Ylmethyl)Carbamoyl]-2,3-Dihydro-1H-Indol-5-Aminium Iodide]	> 10000 nM	–	–	–	–
CC[C@H](C)[C@H](NC(=O)Cc1ccccc1)C(=O)NCC(=O)N1c2ccc(NCc3ccccc3)cc2C[C@H]1C(=O)NCc1nn[nH]n1 [Example C35]	> 10000 nM	–	–	–	–
O=C(O)CCC(=O)N[C@H](C(=O)NCC(=O)N1c2ccccc2C[C@H]1C(=O)NCc1nn[nH]n1)c1ccccc1 [Example C38, 3-{[(S)-({2-Oxo-2-[(2S)-2-[(2H-1,2,3,4-Tetrazol-5-Ylmethyl)Carbamoyl]-2,3-Dihydro-1H-Indol-1-Yl]Ethyl}Carbamoyl)(Phenyl)Methyl]Carbamoyl}Propanoic Acid]	100 to 1000 nM	–	–	–	–
CC[C@H](C)[C@H](NC(=O)Cc1nn[nH]n1)C(=O)NCC(=O)N1c2ccccc2C[C@H]1C(=O)NCc1c[nH]nn1 [Example C39, (2S)-1-{2-[(2S,3S)-3-Methyl-2-[2-(2H-1,2,3,4-Tetrazol-5-Yl)Acetamido]Pentanamido]Acetyl}-N-(1H-1,2,3-Triazol-4-Ylmethyl)-2,3-Dihydro-1H-Indole-2-Carboxamide]	< 100 nM	–	–	–	–
CC[C@H](C)[C@H](NC(=O)OC(C)(C)C)C(=O)NCC(=O)N1c2ccccc2C[C@H]1C(=O)NCc1nn[nH]n1 [Example I-5, tert-Butyl N-[(1S,2S)-2-methyl-1-({2-oxo-2-[(2S)-2-[(2H-1,2,3,4-tetrazol-5-ylmethyl)carbamoyl]-2,3-dihydro-1H-indol-1-yl]ethyl}carbamoyl)butyl]carbamate]	1000 to 10000 nM	–	–	–	–
